Source: US9594084B2, “Phosphorylation of histones and uses thereof” (H. LEE MOFFITT CANCER CENTER AND RESEARCH INSTITUTE, priority 2012, dated 2017)

Experiments:
5-hmC levels = assay: Slot blot of genomic DNA with 5-hmC and 5-mC antibodies; assay type: cell-based
Procedure: SBC12, T98G and HEK293 cells were treated with WEE1 inhibitor, MK1775 (0.6 μM, 24 hr). Blots were incubated with 5-hmC and 5-mC antibodies.
Genomic DNA was isolated, blotted by slot blot, followed by immunoblotting with 5-hmC and 5-mC antibodies. […] 5-hmC containing plasmid DNA (Zymo research) was used as positive control.

WEE1 = WEE1 (Homo sapiens, UniProt P30291); assay: In vitro kinase assay, purified WEE1 and H2B; assay type: biochemical; set-up: GST; purchased Invitrogen; settings: MK1775 0.625 μM, 1 hour at 30° C.
Procedure: FIG. 13A is an immunoblot showing lysates from synchronized MEFs immunoprecipitated with pTyr37-H2B antibodies followed by immunoblotting with pTyr37-H2B antibody (top panel) or H2B antibody (bottom panel). FIG. 13B is an immunoblot showing cell lysates 6.30 hours post-release from H1975 cells synchronized by double thymidine alone (first column) or with 0.31 μM (second column), 0.62 μM (third column) and 1.25 μM (fourth column) MK1775 WEE1 inhibitor that were immunoprecipitated with pTyr37-H2B antibodies followed by immunoblotting with pTyr37-H2B, H2B, pTyr15-Cdc2, or Cdc2 antibodies. FIG. 13C is an immunoblot showing lysates collected at 0 and 6.30 hours post-release from synchronized MEFs transfected with control (first two columns) or WEE1 (last two columns) siRNAs that were immunoprecipitated with pTyr37-H2B antibodies followed by immunoblotting with pTyr37-H2B (top panel), H2B (second panel), WEE1 (third panel), or PTyr15-Cdc2 (bottom panel) antibodies. FIG. 13D is an immunoblot showing equimolar amounts of purified WEE1 (last three columns) and H2B (first three columns) proteins incubated in the presence (third column) or absence of WEE1 inhibitor (MK1775, 0.625 μM) for 1 hour at 30° C. and immunoblotted with pTyr37-H2B (top panel), H2B (middle panel), and WEE1 (bottom panel) antibodies. […]

[1] = test system: NPAT and RNA polymerase II at Site II; assay: ChIP-qPCR with NPAT or RNA Pol II antibodies at Site II in synchronized MEFs; assay type: cell-based, mouse; settings: 6.30 hours post-release
Procedure: FIG. 3B-3F are graphs showing histone RNA (relative to actin) in wildtype (WT) and Y40A mutant yeast cells treated with α-factor for 3 hours, washed and harvested at indicated time points post-release. Total RNA was prepared followed by qRT-PCR for histones transcripts. FACS analysis of yeast cells was performed to determine exit of cells from […] (0 minutes) and entry into cell cycle. Data are representative of three independent experiments. The p values for 30 minutes are as follows: #p=0.024; ##p=0.008; ###p=0.0083; ####p=0.037. FIG. 3G to 3H are graphs showing ChIP (% input DNA) in synchronized MEFs treated with WEE1 inhibitor or untreated and harvested 6.30 hours post-release. ChIP was performed using NPAT and IgG antibodies (FIG. 3G) or RNA Pol II and IgG (FIG. 3H) followed by qPCR using primers corresponding to Site II. *p=0.0018, **p=0.01. FIG. 3I is an immunoblot showing total histones prepared from synchronized WT (first three columns) and Y40A mutant yeast cells (last three columns) 0, 20, and 30 minutes post release that were immunoprecipitated with pTyr37-H2B antibodies and immunoblotted with yeast H2B antibodies (upper panel) or yeast tubulin antibodies (bottom panel). […]
To understand the potential mechanism of repression of histone transcription the role of NPAT was assessed. […]

Sequence of WEE1 (P30291 whole entry): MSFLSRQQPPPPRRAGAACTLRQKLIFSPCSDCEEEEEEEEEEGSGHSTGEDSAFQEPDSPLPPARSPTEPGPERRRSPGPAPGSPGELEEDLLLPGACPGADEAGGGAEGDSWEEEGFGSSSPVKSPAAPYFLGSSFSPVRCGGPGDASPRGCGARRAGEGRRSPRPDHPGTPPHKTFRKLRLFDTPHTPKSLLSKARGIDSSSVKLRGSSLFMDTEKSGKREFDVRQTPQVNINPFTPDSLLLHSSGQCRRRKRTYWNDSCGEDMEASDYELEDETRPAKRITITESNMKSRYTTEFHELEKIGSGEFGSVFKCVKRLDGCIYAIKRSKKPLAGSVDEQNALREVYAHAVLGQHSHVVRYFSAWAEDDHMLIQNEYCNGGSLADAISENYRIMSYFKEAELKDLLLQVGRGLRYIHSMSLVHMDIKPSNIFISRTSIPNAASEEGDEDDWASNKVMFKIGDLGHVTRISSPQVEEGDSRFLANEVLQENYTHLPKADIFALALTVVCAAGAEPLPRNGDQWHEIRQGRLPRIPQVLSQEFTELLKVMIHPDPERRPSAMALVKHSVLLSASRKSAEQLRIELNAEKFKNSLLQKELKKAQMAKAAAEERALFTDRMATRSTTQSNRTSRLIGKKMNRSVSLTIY

C=CCn1c(=O)c2cnc(Nc3ccc(N4CCN(C)CC4)cc3)nc2n1-c1cccc(C(C)(C)O)n1 [MK-1775]
5-hmC levels (5-hmC levels; HEK293 cells, 0.6 μM, 24 hr): remained unchanged | 5-hmC levels (5-hmC levels; SBC12 melanoma derived cell line, 0.6 μM, 24 hr): significant upregulation | 5-hmC levels (5-hmC levels; T98G GBM-derived cells, 0.6 μM, 24 hr): significant upregulation | 5-mC levels (5-hmC levels; immunoblotting with 5-mC antibodies, 0.6 μM, 24 hr): concomitant decrease | 5-hmC levels (5-hmC levels; summary statement): restored | H2B pTyr37-phosphorylation by purified WEE1 (WEE1): abrogated | recruitment of NPAT at Site II [1]: binding was detected | recruitment of RNA polymerase II at Site II [1]: binding was detected
